Measurements taken from PubChem BioAssay AID256 (DTP/NCI, 2004).
Several values for one entry are separate records, joined by “and”; a condition that tells them apart may be missing. Identical values can stand only once. Inconclusive results and toxic doses are left out.

Test system: CD2F1 mice, L1210 leukemia ip, survival T/C
Experiment: NCI In Vivo Anticancer Drug Screen. Data for tumor model L1210 Leukemia (intraperitoneal) in CD2F1 (CDF1) mice
Conditions: higher = longer survival
How it was run: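 Compound-dosed mice with transplantable tumor versus matched vehicle controls; endpoint ratio T/C reported.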

[1] = endpoint: mean survival time, dose: 100.0 mg/kg/injection, schedule: Q01DX009 (ip), vehicle: saline with Tween-80
[2] = endpoint: mean survival time, dose: 100.0 mg/kg/injection, schedule: Q04DX003 (ip), vehicle: saline with Tween-80
[3] = endpoint: mean survival time, dose: 200.0 mg/kg/injection, schedule: Q01DX009 (ip), vehicle: saline with Tween-80
[4] = endpoint: mean survival time, dose: 200.0 mg/kg/injection, schedule: Q04DX003 (ip), vehicle: saline with Tween-80
[5] = endpoint: mean survival time, dose: 400.0 mg/kg/injection, schedule: Q01DX009 (ip), vehicle: saline with Tween-80
[6] = endpoint: mean survival time, dose: 400.0 mg/kg/injection, schedule: Q04DX003 (ip), vehicle: saline with Tween-80
[7] = endpoint: mean survival time, dose: 50.0 mg/kg/injection, schedule: Q04DX002 (ip), vehicle: saline with Tween-80
[8] = endpoint: mean survival time, dose: 100.0 mg/kg/injection, schedule: Q04DX002 (ip), vehicle: saline with Tween-80
[9] = endpoint: mean survival time, dose: 200.0 mg/kg/injection, schedule: Q04DX002 (ip), vehicle: saline with Tween-80
[10] = endpoint: mean survival time, dose: 2.5 mg/kg/injection, schedule: Q01DX009 (ip), vehicle: Klucel (hydroxypropylcellulose) (HPC)
[11] = endpoint: mean survival time, dose: 5.0 mg/kg/injection, schedule: Q01DX009 (ip), vehicle: Klucel (hydroxypropylcellulose) (HPC)
[12] = endpoint: mean survival time, dose: 10.0 mg/kg/injection, schedule: Q01DX009 (ip), vehicle: Klucel (hydroxypropylcellulose) (HPC)
[13] = endpoint: mean survival time, dose: 400.0 mg/kg/injection, schedule: Q04DX002 (ip), vehicle: saline with Tween-80
[14] = endpoint: mean survival time, dose: 100.0 mg/kg/injection, schedule: Q04DX003 (ip), vehicle: saline

Nc1ccn(C2CC3OCC3O2)c(=O)n1 (stereo not drawn)
T/C (endpoint: median survival time, dose: 12.5 mg/kg/injection, schedule: Q01DX005 (ip), vehicle: saline): 97 % of control
T/C (endpoint: median survival time, dose: 25.0 mg/kg/injection, schedule: Q01DX005 (ip), vehicle: saline): 105 % of control
T/C (endpoint: median survival time, dose: 50.0 mg/kg/injection, schedule: Q01DX005 (ip), vehicle: saline): 103 % of control
T/C (endpoint: median survival time, dose: 100.0 mg/kg/injection, schedule: Q01DX005 (ip), vehicle: saline): 110 % of control
T/C (endpoint: median survival time, dose: 200.0 mg/kg/injection, schedule: Q01DX005 (ip), vehicle: saline): 104 % of control

CC(C)(CO)CBr
T/C [1]: 95 % of control
T/C [2]: 95 % of control
T/C [3]: 102 % of control
T/C [4]: 97 % of control
T/C [5]: 98 % of control
T/C [6]: 95 % of control

CCSC/C(=N\Nc1ccc([N+](=O)[O-])cc1[N+](=O)[O-])c1ccccc1
T/C [2]: 109 % of control
T/C [4]: 109 % of control
T/C [6]: 102 % of control

Nc1ccc(Cn2ccc3c4c(N)nc(N)nc4ccc32)cc1
T/C (endpoint: mean survival time, dose: 1.25 mg/kg/injection, schedule: Q01DX005 (ip), vehicle: saline with Tween-80): 101 % of control
T/C (endpoint: mean survival time, dose: 1.25 mg/kg/injection, schedule: Q01DX009 (ip), vehicle: saline with Tween-80): 101 % of control and 102 % of control and 108 % of control
T/C (endpoint: mean survival time, dose: 2.5 mg/kg/injection, schedule: Q01DX005 (ip), vehicle: saline with Tween-80): 111 % of control
T/C (endpoint: mean survival time, dose: 5.0 mg/kg/injection, schedule: Q01DX005 (ip), vehicle: saline with Tween-80): 110 % of control
T/C (endpoint: mean survival time, dose: 10.0 mg/kg/injection, schedule: Q01DX005 (ip), vehicle: saline with Tween-80): 123 % of control
T/C (endpoint: mean survival time, dose: 20.0 mg/kg/injection, schedule: Q01DX005 (ip), vehicle: saline with Tween-80): 106 % of control
T/C (endpoint: mean survival time, dose: 30.0 mg/kg/injection, schedule: Q01DX005 (ip), vehicle: saline with Tween-80): 117 % of control
T/C (endpoint: median survival time, dose: 1.25 mg/kg/injection, schedule: Q01DX009 (ip), vehicle: saline with Tween-80): 103 % of control and 108 % of control
T/C (endpoint: median survival time, dose: 2.5 mg/kg/injection, schedule: Q01DX009 (ip), vehicle: saline with Tween-80): 118 % of control and 103 % of control
T/C (endpoint: median survival time, dose: 5.0 mg/kg/injection, schedule: Q01DX009 (ip), vehicle: saline with Tween-80): 124 % of control and 103 % of control
T/C (endpoint: median survival time, dose: 10.0 mg/kg/injection, schedule: Q01DX009 (ip), vehicle: saline with Tween-80): 113 % of control
T/C (endpoint: median survival time, dose: 20.0 mg/kg/injection, schedule: Q01DX009 (ip), vehicle: saline with Tween-80): 152 % of control

C[n+]1nc(-c2ccccc2)oc1-c1ccccc1
T/C (endpoint: mean survival time, dose: 25.0 mg/kg/injection, schedule: Q04DX002 (ip), vehicle: saline with Tween-80): 100 % of control
T/C [7]: 100 % of control
T/C [8]: 108 % of control
T/C [9]: 106 % of control

CC(C(=O)c1ccc(-c2ccccc2)cc1)C(Cl)c1ccccc1 (stereo not drawn)
T/C [2]: 95 % of control
T/C [4]: 95 % of control
T/C [6]: 100 % of control

S=C=NCCCCCCN=C=S
T/C (endpoint: mean survival time, dose: 6.25 mg/kg/injection, schedule: Q04DX002 (ip), vehicle: saline): 104 % of control
T/C (endpoint: mean survival time, dose: 12.5 mg/kg/injection, schedule: Q04DX002 (ip), vehicle: saline): 98 % of control
T/C (endpoint: mean survival time, dose: 25.0 mg/kg/injection, schedule: Q04DX002 (ip), vehicle: saline): 90 % of control and 102 % of control
T/C (endpoint: mean survival time, dose: 50.0 mg/kg/injection, schedule: Q04DX002 (ip), vehicle: saline): 98 % of control

COC(=O)c1cncn1C1c2ccccc2-c2ccccc21
T/C [7]: 103 % of control
T/C (endpoint: mean survival time, dose: 100.0 mg/kg/injection, schedule: Q01DX001 (ip), vehicle: saline with Tween-80): 86 % of control
T/C [8]: 98 % of control
T/C (endpoint: mean survival time, dose: 200.0 mg/kg/injection, schedule: Q01DX001 (ip), vehicle: saline with Tween-80): 91 % of control
T/C [9]: 95 % of control
T/C (endpoint: mean survival time, dose: 400.0 mg/kg/injection, schedule: Q01DX001 (ip), vehicle: saline with Tween-80): 91 % of control

ClCCn1c(CCl)nc2ccc(Cl)cc21
T/C [10]: 109 % of control
T/C [11]: 101 % of control
T/C [12]: 95 % of control and 102 % of control

CCCCCCCCCCCCSC(=S)S
T/C [8]: 87 % of control
T/C [9]: 91 % of control
T/C [13]: 91 % of control

COc1cc2c(c(OC)c1OC)-c1cc3c(cc1[C@@H](OC(C)=O)[C@@H]1COC(=O)[C@H]1C2)OCO3
T/C (endpoint: mean survival time, dose: 1.25 mg/kg/injection, schedule: Q01DX009 (ip), vehicle: Klucel (hydroxypropylcellulose) (HPC)): 95 % of control
T/C [10]: 103 % of control
T/C [11]: 97 % of control
T/C [12]: 112 % of control

Cc1cccc[n+]1CCC(N)=O
T/C (endpoint: mean survival time, dose: 6.25 mg/kg/injection, schedule: Q04DX003 (ip), vehicle: saline): 96 % of control
T/C (endpoint: mean survival time, dose: 12.5 mg/kg/injection, schedule: Q04DX003 (ip), vehicle: saline): 88 % of control
T/C (endpoint: mean survival time, dose: 25.0 mg/kg/injection, schedule: Q04DX003 (ip), vehicle: saline): 91 % of control

Cc1ccc(O)c(/C=N/NC(N)=S)n1
T/C (endpoint: mean survival time, dose: 12.5 mg/kg/injection, schedule: Q03HX024 (ip), vehicle: saline): 103 % of control
T/C (endpoint: mean survival time, dose: 25.0 mg/kg/injection, schedule: Q03HX024 (ip), vehicle: saline): 102 % of control
T/C (endpoint: mean survival time, dose: 50.0 mg/kg/injection, schedule: Q03HX024 (ip), vehicle: saline): 103 % of control

CCOC(=O)c1ccc(NC(=O)N(CC)c2ccccc2)cc1
T/C [1]: 96 % of control and 100 % of control
T/C [8]: 100 % of control and 109 % of control
T/C [2]: 94 % of control
T/C [3]: 95 % of control and 104 % of control
T/C [9]: 92 % of control and 102 % of control
T/C [4]: 94 % of control
T/C [5]: 96 % of control and 100 % of control
T/C [13]: 94 % of control and 98 % of control
T/C [6]: 95 % of control

CC1CCN(N=Nc2ccccc2-c2nc(N)c3ccccc3n2)CC1
T/C (endpoint: mean survival time, dose: 100.0 mg/kg/injection, schedule: Q04DX002 (ip), vehicle: Klucel (hydroxypropylcellulose) (HPC)): 98 % of control
T/C (endpoint: mean survival time, dose: 200.0 mg/kg/injection, schedule: Q04DX002 (ip), vehicle: Klucel (hydroxypropylcellulose) (HPC)): 109 % of control
T/C (endpoint: mean survival time, dose: 400.0 mg/kg/injection, schedule: Q04DX002 (ip), vehicle: Klucel (hydroxypropylcellulose) (HPC)): 95 % of control

CCCCCCCCCCCC(=O)OCC1OC2C(Oc3nc(=N)ccn32)C1OC(=O)CCCCCCCCCCC (stereo not drawn)
T/C (endpoint: mean survival time, dose: 12.5 mg/kg/injection, schedule: Q01DX009 (ip), vehicle: water): 168 % of control
T/C (endpoint: mean survival time, dose: 25.0 mg/kg/injection, schedule: Q01DX009 (ip), vehicle: water): 247 % of control
T/C (endpoint: mean survival time, dose: 50.0 mg/kg/injection, schedule: Q01DX009 (ip), vehicle: water): 187 % of control
T/C (endpoint: mean survival time, dose: 100.0 mg/kg/injection, schedule: Q01DX009 (ip), vehicle: water): 98 % of control

CCN(N=O)C(=O)Nc1ccc(C2CC(=O)N(C)C2=O)cc1 (stereo not drawn)
T/C (endpoint: mean survival time, dose: 12.5 mg/kg/injection, schedule: Q01DX001 (ip), vehicle: distilled water + Tween-80): 99 % of control
T/C (endpoint: mean survival time, dose: 25.0 mg/kg/injection, schedule: Q01DX001 (ip), vehicle: distilled water + Tween-80): 111 % of control
T/C (endpoint: mean survival time, dose: 50.0 mg/kg/injection, schedule: Q01DX001 (ip), vehicle: distilled water + Tween-80): 94 % of control and 98 % of control and 108 % of control
T/C (endpoint: mean survival time, dose: 100.0 mg/kg/injection, schedule: Q01DX001 (ip), vehicle: distilled water + Tween-80): 122 % of control and 94 % of control and 96 % of control
T/C (endpoint: mean survival time, dose: 200.0 mg/kg/injection, schedule: Q01DX001 (ip), vehicle: distilled water + Tween-80): 99 % of control and 101 % of control

OC(C1CCCCN1)C1CC(c2ccccc2)Nc2c(Cl)cc(Cl)cc21 (stereo not drawn)
T/C [14]: 97 % of control

O=C(N/C=C\NC(=O)Nc1cccc(Cl)c1)Nc1cccc(Cl)c1
T/C [8]: 90 % of control
T/C [9]: 90 % of control
T/C [13]: 98 % of control

CCOC(=O)CCC(NC(=O)c1ccc(CN(C)Cc2cnc3nc(N)nc(N)c3n2)cc1)C(=O)OCC (stereo not drawn)
T/C (endpoint: mean survival time, dose: 1.0 mg/kg/injection, schedule: Q01DX009 (ip), vehicle: Klucel (hydroxypropylcellulose) (HPC)): 100 % of control
T/C [12]: 108 % of control
T/C (endpoint: mean survival time, dose: 25.0 mg/kg/injection, schedule: Q01DX009 (ip), vehicle: Klucel (hydroxypropylcellulose) (HPC)): 115 % of control

O=C1c2ccccc2C(=O)c2c(O)c(S(=O)(=O)O)cc(O)c21
T/C [14]: 93 % of control
T/C (endpoint: mean survival time, dose: 200.0 mg/kg/injection, schedule: Q04DX003 (ip), vehicle: saline): 96 % of control

NC(=O)c1csc(COCCO)n1
T/C (endpoint: median survival time, dose: 40.63 mg/kg/injection, schedule: Q01DX005 (ip), vehicle: water): 102 % of control
T/C (endpoint: median survival time, dose: 81.25 mg/kg/injection, schedule: Q01DX005 (ip), vehicle: water): 99 % of control
T/C (endpoint: median survival time, dose: 162.5 mg/kg/injection, schedule: Q01DX005 (ip), vehicle: water): 103 % of control
T/C (endpoint: median survival time, dose: 325.0 mg/kg/injection, schedule: Q01DX005 (ip), vehicle: water): 96 % of control
